Reference: ChEMBL document CHEMBL1201862, “PubChem BioAssay data set” (2004)
Active and inactive are the calls of the source.

How the values were obtained:
BJ [1] = assay: cytotoxicity toward BJ-TERT fibroblasts, dose response, cell-based, RAS-independent, luminescence (AID 1933); format: functional, Homo sapiens; conditions: Homo sapiens, BJ
[2] = target: Luciferin 4-monooxygenase (Photinus pyralis, UniProt P08659); assay: Counter Screen for Luciferase-based Assay Positives. [Related pubchem assays: 620, 618, 411 ]
BJ [3] = assay: cells; format: functional, cell-based, Homo sapiens; conditions: Homo sapiens, BJ
HT-1080 = assay: cytotoxicity in HT1080 fibrosarcoma cells, cell-based, fluorescence readout (AID 620); format: functional; conditions: Homo sapiens
BJ [4] = assay: cytotoxicity toward BJ-TERT-LT-ST fibroblasts, dose response, cell-based, RAS-independent, luminescence (AID 1935); format: functional, Homo sapiens; conditions: Homo sapiens, BJ;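 further: BJ fibroblasts immortalized with TERT plus LT and ST oncogenes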
[5] = cytotoxicity toward DRD oncogenic fibroblasts, dose response, cell-based, non-viral oncogenic, luminescence (AID 1934); format: functional; conditions: Homo sapiens
[6] = cytotoxicity in HEK-293T cells, dose response, cytotoxicity control for TCR NF-kB inhibitor project, luminescence, T-cell screen hits (AID 489026); format: functional, cell-based;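 further: cells exposed to compound about 14 hours before the viability readout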
Estrogen receptor beta [7] = target: T1, Estrogen receptor beta (Homo sapiens, UniProt Q92731);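 further: recombinant ER-beta bound to coactivator SRC1 peptide in presence of estradiol agonist; inhibitors block coactivator peptide binding and lower the FRET signal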
T1 sequence (Q92731 whole entry): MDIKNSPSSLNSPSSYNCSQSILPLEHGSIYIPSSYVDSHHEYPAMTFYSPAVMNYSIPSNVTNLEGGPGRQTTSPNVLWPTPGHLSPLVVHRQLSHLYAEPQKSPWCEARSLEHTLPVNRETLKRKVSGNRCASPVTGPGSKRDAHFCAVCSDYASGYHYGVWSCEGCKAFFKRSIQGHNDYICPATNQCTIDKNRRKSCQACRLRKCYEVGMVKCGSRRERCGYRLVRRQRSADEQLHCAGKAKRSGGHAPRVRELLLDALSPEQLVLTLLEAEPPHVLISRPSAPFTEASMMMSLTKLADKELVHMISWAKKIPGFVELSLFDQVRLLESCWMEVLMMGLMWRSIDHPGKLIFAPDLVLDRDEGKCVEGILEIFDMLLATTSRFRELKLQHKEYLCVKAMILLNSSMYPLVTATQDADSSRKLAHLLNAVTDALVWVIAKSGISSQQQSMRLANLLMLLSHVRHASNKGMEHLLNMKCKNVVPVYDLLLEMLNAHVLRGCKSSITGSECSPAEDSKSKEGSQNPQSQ

Estrogen receptor beta [8] = target: T1, Estrogen receptor beta; assay: ERβ–SRC-3 coactivator interaction inhibitors, confirmation, orthogonal assay, biochemical, ELISA, streptavidin-HRP readout (AID 1060)
[9] = target: DNA dC->dU-editing enzyme APOBEC-3A (Homo sapiens, UniProt P31941); assay: Dose Response confirmation of small molecule APOBEC3A DNA Deaminase Inhibitors via a fluorescence-based single-stranded DNA deaminase assay. [Related pubchem assays (depositor defined):AID493011, AID493024]; format: functional
DNA dC->dU-editing enzyme APOBEC-3A, sequence (P31941 whole entry): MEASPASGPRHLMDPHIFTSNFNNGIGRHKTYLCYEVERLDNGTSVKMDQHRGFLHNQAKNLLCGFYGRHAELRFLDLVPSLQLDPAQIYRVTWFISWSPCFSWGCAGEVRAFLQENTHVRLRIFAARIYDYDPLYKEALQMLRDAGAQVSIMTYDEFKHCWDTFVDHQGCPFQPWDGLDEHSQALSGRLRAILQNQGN

[10] = target: DNA dC->dU-editing enzyme APOBEC-3G (Homo sapiens, UniProt Q9HC16); format: functional;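 further: Dose-response counterscreen measuring inhibition of APOBEC3G DNA deaminase activity, run while confirming APOBEC3A inhibitors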
DNA dC->dU-editing enzyme APOBEC-3G, sequence (Q9HC16 whole entry): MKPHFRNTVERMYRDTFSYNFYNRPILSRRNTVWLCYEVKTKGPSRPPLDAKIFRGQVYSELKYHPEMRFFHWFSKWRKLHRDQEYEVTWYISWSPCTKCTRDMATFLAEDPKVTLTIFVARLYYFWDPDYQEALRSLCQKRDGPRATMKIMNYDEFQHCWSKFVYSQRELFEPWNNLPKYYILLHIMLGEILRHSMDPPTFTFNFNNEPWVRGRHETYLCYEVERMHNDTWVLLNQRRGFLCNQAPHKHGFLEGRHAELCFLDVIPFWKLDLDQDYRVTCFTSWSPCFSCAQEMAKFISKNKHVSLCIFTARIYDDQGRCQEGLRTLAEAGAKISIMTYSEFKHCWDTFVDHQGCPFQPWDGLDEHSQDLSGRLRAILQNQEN

[11] = target: Photoreceptor-specific nuclear receptor (Homo sapiens, UniProt Q9Y5X4); format: functional;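 further: potency for compounds that break the NR2E3 corepressor complex and count as activators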
Photoreceptor-specific nuclear receptor, sequence (Q9Y5X4 whole entry): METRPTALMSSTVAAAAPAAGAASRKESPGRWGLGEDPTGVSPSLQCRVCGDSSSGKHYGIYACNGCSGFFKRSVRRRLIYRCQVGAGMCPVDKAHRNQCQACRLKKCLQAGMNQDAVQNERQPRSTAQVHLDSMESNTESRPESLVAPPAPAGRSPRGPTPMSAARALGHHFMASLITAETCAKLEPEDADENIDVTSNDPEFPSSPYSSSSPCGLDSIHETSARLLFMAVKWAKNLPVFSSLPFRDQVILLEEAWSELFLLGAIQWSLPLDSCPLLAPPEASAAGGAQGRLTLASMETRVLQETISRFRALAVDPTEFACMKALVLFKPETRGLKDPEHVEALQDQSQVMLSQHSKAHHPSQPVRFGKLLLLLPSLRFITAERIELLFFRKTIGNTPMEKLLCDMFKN

[12] = target: Peroxisome proliferator-activated receptor gamma/Nuclear receptor corepressor 2 (Homo sapiens, UniProt P37231+Q9Y618); format: functional
Peroxisome proliferator-activated receptor gamma/Nuclear receptor corepressor 2, sequence (P37231 whole entry): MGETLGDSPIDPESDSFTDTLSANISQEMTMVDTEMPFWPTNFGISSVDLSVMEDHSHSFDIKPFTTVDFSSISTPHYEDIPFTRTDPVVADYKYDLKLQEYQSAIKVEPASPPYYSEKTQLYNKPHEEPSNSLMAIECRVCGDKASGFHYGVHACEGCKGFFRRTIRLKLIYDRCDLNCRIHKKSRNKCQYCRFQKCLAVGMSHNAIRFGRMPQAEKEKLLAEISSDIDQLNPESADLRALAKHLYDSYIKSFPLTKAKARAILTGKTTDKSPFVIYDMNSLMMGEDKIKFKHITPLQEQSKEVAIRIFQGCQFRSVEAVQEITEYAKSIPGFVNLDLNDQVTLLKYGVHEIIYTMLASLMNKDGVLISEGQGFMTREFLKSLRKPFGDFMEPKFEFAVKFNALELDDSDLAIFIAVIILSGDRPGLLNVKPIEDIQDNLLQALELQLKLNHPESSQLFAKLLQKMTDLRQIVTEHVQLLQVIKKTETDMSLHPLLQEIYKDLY
Peroxisome proliferator-activated receptor gamma/Nuclear receptor corepressor 2, sequence (Q9Y618 whole entry): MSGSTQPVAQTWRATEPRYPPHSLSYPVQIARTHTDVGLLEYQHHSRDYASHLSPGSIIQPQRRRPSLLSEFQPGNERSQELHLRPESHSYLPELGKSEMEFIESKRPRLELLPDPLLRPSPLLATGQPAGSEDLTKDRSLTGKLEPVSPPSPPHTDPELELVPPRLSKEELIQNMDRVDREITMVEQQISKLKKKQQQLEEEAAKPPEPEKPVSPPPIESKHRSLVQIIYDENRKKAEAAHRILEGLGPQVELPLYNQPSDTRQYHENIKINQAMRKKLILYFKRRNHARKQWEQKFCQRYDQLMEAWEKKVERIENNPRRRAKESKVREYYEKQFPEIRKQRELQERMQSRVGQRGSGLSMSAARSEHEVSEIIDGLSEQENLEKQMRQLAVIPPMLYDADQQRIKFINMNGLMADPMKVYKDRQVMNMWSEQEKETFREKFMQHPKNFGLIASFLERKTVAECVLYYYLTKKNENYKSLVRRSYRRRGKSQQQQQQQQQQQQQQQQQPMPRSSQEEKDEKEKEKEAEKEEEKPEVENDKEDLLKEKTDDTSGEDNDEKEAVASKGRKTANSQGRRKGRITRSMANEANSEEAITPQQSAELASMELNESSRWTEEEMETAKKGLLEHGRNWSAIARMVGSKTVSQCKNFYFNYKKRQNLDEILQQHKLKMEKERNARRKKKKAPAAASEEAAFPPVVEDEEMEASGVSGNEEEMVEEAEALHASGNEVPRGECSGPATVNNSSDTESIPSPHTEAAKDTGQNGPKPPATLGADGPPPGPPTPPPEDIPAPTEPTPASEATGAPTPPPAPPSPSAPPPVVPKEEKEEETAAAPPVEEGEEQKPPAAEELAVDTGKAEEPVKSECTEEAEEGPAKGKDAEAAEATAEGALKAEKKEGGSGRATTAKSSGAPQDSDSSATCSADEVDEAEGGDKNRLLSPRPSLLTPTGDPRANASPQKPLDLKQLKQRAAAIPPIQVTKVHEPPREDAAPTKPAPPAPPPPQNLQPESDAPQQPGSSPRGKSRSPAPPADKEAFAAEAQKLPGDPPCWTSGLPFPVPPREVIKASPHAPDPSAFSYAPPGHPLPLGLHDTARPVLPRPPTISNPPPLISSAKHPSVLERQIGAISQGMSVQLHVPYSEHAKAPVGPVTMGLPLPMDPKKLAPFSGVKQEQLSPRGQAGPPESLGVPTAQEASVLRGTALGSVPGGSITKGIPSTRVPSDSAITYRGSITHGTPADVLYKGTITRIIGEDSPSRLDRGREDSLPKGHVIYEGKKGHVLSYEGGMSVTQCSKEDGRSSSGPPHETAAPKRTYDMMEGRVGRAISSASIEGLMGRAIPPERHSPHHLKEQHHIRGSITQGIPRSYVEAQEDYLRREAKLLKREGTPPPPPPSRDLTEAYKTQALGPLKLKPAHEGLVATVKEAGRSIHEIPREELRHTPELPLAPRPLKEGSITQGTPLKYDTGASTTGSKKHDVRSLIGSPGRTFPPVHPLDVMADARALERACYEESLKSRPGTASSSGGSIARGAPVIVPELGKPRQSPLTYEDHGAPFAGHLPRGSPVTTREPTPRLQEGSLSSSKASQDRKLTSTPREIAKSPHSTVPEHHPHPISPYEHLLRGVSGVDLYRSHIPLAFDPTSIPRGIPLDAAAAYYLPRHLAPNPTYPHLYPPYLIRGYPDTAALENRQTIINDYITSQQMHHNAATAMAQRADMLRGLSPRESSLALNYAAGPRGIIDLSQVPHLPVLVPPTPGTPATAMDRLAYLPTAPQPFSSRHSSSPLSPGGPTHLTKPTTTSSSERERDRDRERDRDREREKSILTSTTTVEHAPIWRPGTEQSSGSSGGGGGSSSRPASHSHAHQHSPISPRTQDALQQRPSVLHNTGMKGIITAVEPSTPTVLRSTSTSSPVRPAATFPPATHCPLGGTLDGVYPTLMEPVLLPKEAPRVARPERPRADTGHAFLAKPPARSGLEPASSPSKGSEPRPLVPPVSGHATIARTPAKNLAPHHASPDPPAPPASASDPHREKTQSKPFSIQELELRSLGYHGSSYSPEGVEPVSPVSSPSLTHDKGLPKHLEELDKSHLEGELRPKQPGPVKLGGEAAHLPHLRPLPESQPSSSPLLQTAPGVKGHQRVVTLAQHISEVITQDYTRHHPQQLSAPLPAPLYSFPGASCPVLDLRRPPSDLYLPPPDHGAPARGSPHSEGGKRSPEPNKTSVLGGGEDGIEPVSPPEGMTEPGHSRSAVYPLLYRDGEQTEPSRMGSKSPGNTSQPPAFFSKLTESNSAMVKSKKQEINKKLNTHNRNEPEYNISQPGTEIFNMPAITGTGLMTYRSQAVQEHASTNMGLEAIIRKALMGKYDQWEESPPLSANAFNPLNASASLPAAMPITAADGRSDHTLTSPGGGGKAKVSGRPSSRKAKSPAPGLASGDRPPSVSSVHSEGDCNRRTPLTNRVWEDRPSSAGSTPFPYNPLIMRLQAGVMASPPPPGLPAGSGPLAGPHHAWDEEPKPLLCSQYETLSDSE

[13] = target: Lysosomal acid glucosylceramidase (Homo sapiens, UniProt P04062); assay: Dose response cell-based high throughput screening assay to identify enhancers of beta-glucosidase activity. [Related pubchem assays: 784 ]; format: functional
[14] = target: Protein-tyrosine kinase 2-beta (Homo sapiens, UniProt Q14289);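 further: potency of inhibitors of PYK2 kinase phosphorylation of poly-GT substrate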
Cytochrome P450 2C19 = Cytochrome P450 2C19 (Homo sapiens, UniProt P33261); assay: Cytochrome panel assay with activity outcomes. Panel member name: p450-cyp2c19 Compounds with AC50 equal or less than 10 uM are considered active; format: functional; conditions: read-out: AC50
Cytochrome P450 2C19, sequence (P33261 whole entry): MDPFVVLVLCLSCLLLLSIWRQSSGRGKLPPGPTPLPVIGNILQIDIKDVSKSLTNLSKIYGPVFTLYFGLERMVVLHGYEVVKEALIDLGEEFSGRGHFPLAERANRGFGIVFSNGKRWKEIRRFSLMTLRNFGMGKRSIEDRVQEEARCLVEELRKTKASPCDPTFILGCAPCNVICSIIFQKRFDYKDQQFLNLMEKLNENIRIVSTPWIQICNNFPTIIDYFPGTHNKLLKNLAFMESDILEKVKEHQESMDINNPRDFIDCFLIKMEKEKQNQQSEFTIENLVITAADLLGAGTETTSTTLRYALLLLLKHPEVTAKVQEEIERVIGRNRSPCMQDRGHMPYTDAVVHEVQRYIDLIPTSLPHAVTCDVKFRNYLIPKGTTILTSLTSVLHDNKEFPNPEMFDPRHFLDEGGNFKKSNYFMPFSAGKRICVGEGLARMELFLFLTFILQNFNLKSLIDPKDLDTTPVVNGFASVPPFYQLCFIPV

Cytochrome P450 2C9 = Cytochrome P450 2C9 (Homo sapiens, UniProt P11712)
[15] = Luminescence Cell-Based Dose Response to Identify Activators of 5'UTR Stem-Loop Driven Prion Protein mRNA Translation in H4-C Neuroglioblastoma Cells. [Related pubchem assays: 1829 (Project Summary), 1814 (Primary HTS)]; format: functional
H4 = assay: Luminescence Cell-Based Dose Response HTS to Identify Activators of 5'UTR Stem-Loop Driven Prion Protein mRNA Translation in H4 Neuroglioblastoma Cells. [Related pubchem assays: 1829 (Project Summary), 1814 (Primary HTS)]; format: functional; conditions: Homo sapiens
[16] = Luminescence Cell-Based Dose Response to Identify Activators of Luciferase Translation or Activity in H4-C Neuroglioblastoma Cells. [Related pubchem assays: 1829 (Project Summary), 1814 (Primary HTS)]; format: functional
Prothrombin = Prothrombin (Homo sapiens, UniProt P00734); assay: Thrombin 1536 HTS Dose Response Confirmation. [Related pubchem assays: 1046 (Thrombin 1536 HTS; hits were confirmed in this assay)]; format: functional
[17] = Luminescence Cell-Based Dose Confirmation to Identify Activators of 5'UTR Stem-Loop Driven Alpha-Synuclein mRNA Translation in H4 Neuroglioblastoma Cells. [Related pubchem assays: 1829 (Project Summary), 1814 (Primary HTS)]; format: functional
HEK293 = assay: Fluorescence-based counterscreen for potentiators or agonists of NPY-Y2: cell-based high-throughput dose response assay to identify inhibitors of cyclic nucleotide gated ion channel (CNGC) activity. In this assay, the parental HEK293 cell line transfected with a cyclic-nucleotide gated ion channel (CNGC)-based cAMP sensor is used to measure inhibition of isoproterenol-induced CNGC activity by test compound.; format: functional; conditions: Homo sapiens;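 further: stimulus is 1 µM isoproterenol at EC100 plus PDE inhibitor Ro 20-1724 at 25 µM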
[18] = test system: Streptococcus sp. 'group A'; assay: growth inhibition of control SK(-) GAS strain, dose response, counter-screen for streptokinase expression inhibitor project, luminescence, kanamycin, BacTiterGlo, confirmation (AID 1900); format: functional, organism-based
[19] = target: T2, Neuropeptide Y receptor type 2 (Homo sapiens, UniProt P49146); assay: Fluorescence-based cell-based high-throughput dose response assay for agonists of NPY-Y2. [Related pubchem assays: 1703 (Screening assay (CNGC inhibitors).), 1359 (Screening assay (NPY-Y2 potentiators or agonists).), 1304 (Screening assay (NPY-Y1 potentiators or agonists).), 1710 (Screening assay (NPY-Y2 agonists).), 1791 (Summary AID.)]; format: functional
T2 sequence (P49146 whole entry): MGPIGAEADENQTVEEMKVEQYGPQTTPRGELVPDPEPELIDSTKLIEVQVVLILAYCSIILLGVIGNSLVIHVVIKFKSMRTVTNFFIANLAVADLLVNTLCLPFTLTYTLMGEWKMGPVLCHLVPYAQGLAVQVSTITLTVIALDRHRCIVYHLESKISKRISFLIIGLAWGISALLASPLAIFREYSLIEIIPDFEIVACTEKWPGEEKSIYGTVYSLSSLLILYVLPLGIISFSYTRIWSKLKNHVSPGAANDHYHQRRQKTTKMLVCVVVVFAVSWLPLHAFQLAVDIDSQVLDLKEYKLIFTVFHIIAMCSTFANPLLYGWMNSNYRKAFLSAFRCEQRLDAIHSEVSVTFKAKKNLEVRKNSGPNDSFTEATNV

Streptokinase A = target: T3, Streptokinase A (Streptococcus pyogenes serotype M1, UniProt P10520); assay: S. pyogenes streptokinase expression inhibitors, potency, dose response, plasminogen activation absorbance, OD405 (AID 1914); format: functional, Streptococcus pyogenes M1 GAS;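 further: secreted streptokinase activity via plasminogen activation per viability signal from cell pellet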
T3 sequence (P10520 whole entry): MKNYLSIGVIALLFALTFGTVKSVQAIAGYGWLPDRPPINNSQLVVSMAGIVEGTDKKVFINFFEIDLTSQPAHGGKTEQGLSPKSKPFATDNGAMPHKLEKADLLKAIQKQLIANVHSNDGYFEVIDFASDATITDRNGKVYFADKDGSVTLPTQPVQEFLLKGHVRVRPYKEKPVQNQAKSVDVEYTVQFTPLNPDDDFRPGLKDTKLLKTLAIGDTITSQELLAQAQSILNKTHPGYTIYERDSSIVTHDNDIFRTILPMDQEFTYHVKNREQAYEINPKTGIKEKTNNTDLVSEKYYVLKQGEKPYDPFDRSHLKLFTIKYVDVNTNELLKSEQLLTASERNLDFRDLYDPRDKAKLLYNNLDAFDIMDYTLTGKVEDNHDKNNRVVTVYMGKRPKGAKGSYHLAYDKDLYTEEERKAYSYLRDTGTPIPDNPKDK

[20] = target: T4, Neuropeptide Y receptor type 1 (Homo sapiens, UniProt P25929); assay: Fluorescence-based counterscreen for agonists of NPY-Y2: cell-based high-throughput dose response assay for agonists of NPY-Y1.; format: functional
T4 sequence (P25929 whole entry): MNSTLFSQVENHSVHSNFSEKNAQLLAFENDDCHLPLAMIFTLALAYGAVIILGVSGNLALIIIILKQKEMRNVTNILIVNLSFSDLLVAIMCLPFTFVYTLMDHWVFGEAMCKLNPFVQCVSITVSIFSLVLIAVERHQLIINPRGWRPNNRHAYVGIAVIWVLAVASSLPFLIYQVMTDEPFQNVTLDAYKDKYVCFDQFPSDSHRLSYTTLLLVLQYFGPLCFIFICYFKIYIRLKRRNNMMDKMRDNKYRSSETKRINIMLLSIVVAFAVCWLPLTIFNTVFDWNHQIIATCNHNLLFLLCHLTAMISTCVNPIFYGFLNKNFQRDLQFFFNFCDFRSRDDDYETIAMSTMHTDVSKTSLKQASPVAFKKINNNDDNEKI

Streptococcus = assay: Group A Streptococcus viability loss, dose response, counter-screen for streptokinase expression inhibitor project, luminescence, BacTiterGlo (AID 1915); format: functional, organism-based;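 further: potency for reduction of bacterial viability or growth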
INS1 = assay: beta cell apoptosis inhibitors, cytokine rescue, dose response, luminescence, retest (AID 449756); format: functional, cell-based; conditions: Rattus norvegicus;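 further: cell death triggered by IL-1 beta plus TNF-alpha plus IFN-gamma mixture; protective hits raise ATP signal compared with cytokine alone wells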

CCCC(=O)C1=C(Nc2ccc(OC)cc2OC)CC(C)(C)CC1=O
EC50 (BJ [1]): 13.1 µM (active) | EC50 [2]: 0.55 µM (active) | EC50 (BJ [3]): 29.9 µM (active) | EC50 (HT-1080): 17.3 µM (active) | EC50 (BJ [4]): 4.43 µM (active) | EC50 [5]: 4.69 µM (active) | IC50 [6]: > 80 µM (inactive)

COCCCn1c(Cc2csc(Nc3cccc(Cl)c3)n2)nnc1SCC(=O)OC1CCCCC1
IC50 (Estrogen receptor beta [7]): < 1.56 µM (active) | IC50 (Estrogen receptor beta [8]): 0.0434 µM (not active) | IC50 [9]: 20.8 µM (active) | IC50 [10]: 38.8 µM (active)

COc1cccc(CNC(=O)COC(=O)/C(C#N)=C/c2ccc(N(C)C)cc2)c1
IC50 [11]: > 39.8 µM (not active) | IC50 [12]: 29.4 µM (not active)

CCOC(=O)c1ccc(NC(=O)CSC2=NC(=O)C(CC)C(=O)N2)cc1 (centres undefined)
EC50 [13]: > 10 µM (not active)

Cc1ccc(C(=O)COC(=O)c2ccc3c(c2)C(=O)N(c2cccc4ncccc24)C3=O)cc1C
IC50 [14]: 7.66 µM (active) | AC50 (Cytochrome P450 2C19): 15.8 µM (inconclusive) | AC50 (Cytochrome P450 2C9): 0.708 µM (inconclusive)

Cc1ccc(-n2c(C)cc(C(=O)CSc3nncs3)c2C)cc1
EC50 [15]: 0.332 µM (active) | EC50 (H4): < 0.1 µM (active) | EC50 [16]: 0.34 µM (active) | IC50 (Prothrombin): > 50 µM (not active) | EC50 [17]: 0.346 µM (active)

O=C(/C(=N/Nc1cccc([N+](=O)[O-])c1)C(=O)C(F)(F)F)c1ccc(Br)cc1
EC50 (HEK293): 12.2 µM (not active) | EC50 [18]: 7.63 µM (active) | EC50 [19]: 12.1 µM (not active) | EC50 (Streptokinase A): 6.23 µM (active) | EC50 [20]: 10.6 µM (not active) | EC50 (Streptococcus): 5.97 µM (active) | AC50 (INS1): 6.21 µM (active)
